Source: patent US20080003438A1, “Heterocyclic siloxanes for use in biocidal coatings and materials” (Auburn University, priority 2002, published 2008)

Legend:
[1] = system: spores of Aspergillus niger (ATCC # 1004); experiment: Antifungal activity of chlorinated coated surfaces; type: cell-based
Procedure: Soft and hard surfaces were treated by exposure to a solution of 3-triethoxysilylpropyl-5,5-dimethylhydantoin, prepared as described in Example 1. The soft surfaces used for detection of antifungal properties were woven textiles composed of fibers of polypropylene, cotton (cellulose), polyester, rayon, and slabs from a cellulose kitchen sponge. Hard surfaces prepared were polyvinylchloride (PVC) sheets, and porcelain and marble tiles. Challenge inocula of prepared surfaces consisted of aliquots of stock suspensions of spores of Aspergillus niger (ATCC # 1004), a black mold, harvested from cultured lawns on Potato Dextrose Agar (PDA) plates. Methods for preparation of the halogen charged surfaces and protocols for challenge were as described in Example 11. In this case recovery of Aspergillus was accomplished by the plate dilution method on PDA, and the results were expressed as log 10 reductions compared to the controls. Contact times varied from 24-72 hours, considerably longer than was allowed for other organisms because of the well established durability of black mold spores under a wide range of physical and chemical conditions.

[2] = system: Proteus mirabilis bacteria; experiment: Odor control: ammonia in head space above inoculated wood pulp pads; type: cell-based; settings: coated, chlorinated wood pulp pads, 37° C., six hours
Procedure: 3-triethoxysilylpropyl-5,5-dimethylhydantoin, prepared as described in Example 1, was used to treat non-woven pads consisting of 1 gram of a wood pulp matrix such as is used in diapers and incontinence products. A 5% solution prepared in a distilled water and ethanol 1:1 mixture was applied to pads of the wood pulp fibers, and they were then left to soak for 5 minutes. Excess solution was vacuum suctioned from the pads, which were then dried in an oven at 90° C. for two hours. Untreated pads were also subjected to exposure to water and ethanol as controls, and were similarly dried.
Dried coated test samples and uncoated control pads were then treated by exposure to 10% sodium hypochlorite solution for 15 minutes, after which they were rinsed exhaustively with distilled water, and then vacuum dried to remove any unbound, free chlorine. Additional control pads consisted of wood pulp coated with 3-triethoxysilylpropyl-5,5-dimethylhydantoin but not exposed to the hypochlorite bleach charge. […]
All test and control pads were then exposed to an inoculum designed to generate ammonia odor as a result of bacterial action on urine, simulating events in an infant or adult human diaper. […] At the end of this period the samples were removed from the incubator, and the amount of ammonia gas in the head space above each pad was measured as an indicator of the degree of odor generated in the urine. […]

[3] = Laundry washing cycles (AATCC Test Method 61, Test 2A), chlorine loading after washing; type: physicochemical; settings: for Average Chlorine Loading %: cotton
Procedure: Finally, a wash test was performed on swatches of cotton containing the monomer 3-triethoxysilylpropyl-5,5-dimethylhydantoin coating and the polysiloxane coating, each chlorinated and unchlorinated, for comparison purposes. Two treatment baths were prepared, one containing an 8% solution of 3-triethoxysilylpropyl-5,5-dimethylhydantoin in a 50% solution of ethanol in water, the other containing an 8% solution of siloxane polymer prepared as described above in a 66.7% solution of ethanol in water. Identical cotton swatches were soaked in the two baths for 2.5 minutes at ambient temperature, cured in air at 130° C. for 20 minutes, soaked in 1.5% liquid detergent at ambient temperature for 15 minutes, rinsed thoroughly with water, and dried in air at 50° C. for 30 minutes. Then one-half of the swatches of each type were chlorinated by soaking them in 5% CLOROX at ambient temperature for 45 minutes. These chlorinated samples were rinsed thoroughly with water and dried in air at 50° C. for 30 minutes to remove all occluded free chlorine. Iodometric/thiosulfate titrations were performed on representative samples to determine initial chlorine loadings. The average chlorine loading for the silane monomer-coated samples was 0.61%; for the siloxane polymer-coated samples, the average chlorine loading was 0.40%. Then all types of coated swatches were subjected to laundry washing cycles using AATCC Test Method 61 (Test 2A Procedure). Samples were evaluated after 5, 10, and 50 washing cycles for retention of the coatings. Those samples not chlorinated before washing were chlorinated by the procedure described above in order to assess how much chlorine could be loaded after variable numbers of washing cycles. Those chlorinated before washing were divided into two groups with half being assessed for chlorine loading without rechlorination, the other half being rechlorinated and then assessed for chlorine loading. Three observations are clearly evident from the data in Table 3. First, both the silane and the siloxane coatings are partially lost upon successive washings. Second, prechlorination reduces the rate of loss, probably due to increasing the hydrophobicity of the surface, thus reducing the rate of hydrolysis loss of the siloxane coatings. Third, the siloxane coating, which is not chlorinated to as high a level as the silane one upon initial chlorination, is lost at a slower rate than is the silane coating. For all of the coatings, at least partial biocidal efficacy would be regenerated upon rechlorination after 50 washing cycles. Most probably, a low concentration of bleach added to washing cycles should maintain biocidal activity of the cotton material for the lifetime of the material.
Finally, 100% cotton fabric swatches were tested. In this case 10 mL of the refluxed solution of polymer (the solid was not isolated) were mixed with 100 mL of a 50% ethanol/50% water solution in a beaker. The cotton swatches (7 g) were soaked in the solution for 3 minutes, then partially dried in air at ambient temperature, and then cured at 150° C. for 30 minutes. After soaking in 5% CLOROX for 20 minutes, the swatches were rinsed and dried at ambient temperature. The average chlorine loading of several swatches was determined by iodometric/thiosulfate titration to be 0.438% Cl. Then the other treated swatches were subjected to laundry washing cycles using AATCC Test Method 61 (Test 2A Procedure) followed by analytical determination of chlorine loading as a function of the number of wash cycles. After 5, 10, and 50 wash cycles the chlorine loadings averaged 0.282%, 0.279%, and 0.165%, respectively.

[4] = system: spores of Bacillus subtilis; experiment: Anti Bacillus spore activity of chlorine charged coated surfaces; type: cell-based; settings: 96 hours
Procedure: Soft and hard surfaces were treated by exposure to solutions of 3-triethoxysilylpropyl-5,5-dimethylhydantoin, prepared as described in Example 1, and charged with chlorine as described in Example 11. Challenge inocula for the detection of activity versus bacterial spores were prepared from suspensions of spores of Bacillus subtilis. Recovery of viable organisms from challenged surfaces was done on TSA plates, and enumeration was accomplished by the plate dilution method.

CCO[Si](CCCN1C(=O)NC(C)(C)C1=O)(OCC)OCC [3-triethoxysilylpropyl-5,5-dimethylhydantoin]
log 10 reduction in mold concentration ([1]; cotton, contact 24 hours): 8 logs
log 10 reduction in mold concentration ([1]; marble, 72 hours after spore inoculation): 4 log
log 10 reduction in mold concentration ([1]; porcelain, 72 hours after spore inoculation): 5 log
log 10 reduction in mold concentration ([1]; sponge slabs, contact 24 hours): 4 log
log 10 reduction in mold concentration ([1]; synthetic fibers (polypropylene, polyester), 72 hours of contact): 5 logs
log 10 reduction in mold concentration ([1]; vinyl, 72 hours after spore inoculation): 4 log
odor detected by the human nose [2]: no detectable odor whatsoever
ammonia in the head space above the pads ([2]; urine + urea + P. mirabilis, lower limit of detection 0.25 ppm): < 0.25 ppm
bound chlorine retained ([3]; cotton cloth, after 50 wash cycles): about 34%
Average Chlorine Loading % ([3]; chlorination before washing No, after washing Yes, 5 washing cycles): 0.26%
Average Chlorine Loading % ([3]; chlorination before washing No, after washing Yes, 10 washing cycles): 0.15%
Average Chlorine Loading % ([3]; chlorination before washing No, after washing Yes, 50 washing cycles): 0.03%
Average Chlorine Loading % ([3]; chlorination before washing Yes, after washing No, 5 washing cycles): 0.42%
Average Chlorine Loading % ([3]; chlorination before washing Yes, after washing No, 10 washing cycles): 0.41%
Average Chlorine Loading % ([3]; chlorination before washing Yes, after washing No, 50 washing cycles): 0.10%
Average Chlorine Loading % ([3]; chlorination before washing Yes, after washing Yes, 5 washing cycles): 0.394%
Average Chlorine Loading % ([3]; chlorination before washing Yes, after washing Yes, 10 washing cycles): 0.388%
Average Chlorine Loading % ([3]; chlorination before washing Yes, after washing Yes, 50 washing cycles): 0.133%
reduction in viable B. subtilis spore counts ([4]; cellulose sponge): > 5 logs
reduction in viable B. subtilis spore counts ([4]; cotton and polyester): > 2 logs
reduction in viable B. subtilis spore counts ([4]; hard surfaces (marble, vinyl, porcelain)): up to 4 logs
